The source of these data is patent publication US20060216266A1, “Absorbable alpha-cyanoacrylate compositions” (priority 2005, published 2006).

Data set [1] is described as follows: Lap shear testing using pig skin. To be noted: 1/2" x 1" overlap, about 100 μl adhesive, cure 20~30 min, Instron pulling rate 5 mm/min, about 10 joints. The procedure: General Procedure for Lap Shear Testing Using Pig Skin
Fresh pig skin was harvested from the back of the pig within 5 hours post sacrifice. The hair was removed by trimming and shaving to expose a smooth skin surface. The fat attached to the inside skin surface was trimmed away. The skin was cut into 2″×1″ coupons and covered by saline moist paper towel before use.
The external surface of the skin was used as bonding surface to prepare the lap shear joint samples.
The coupons were patted dry prior to forming the lap shear joint. About 1 00 μl of adhesive was deposited to one coupon within ½″ from the nearer end and smoothed to cover a ½″×1″ area (FIG. 1). The other coupon was placed over the area of the coupon with applied adhesive to form an overlap of ½″×1″. A 1 lb weight was placed on top of the overlap area. The joint was allowed to cure for 20˜30 min and the strength of the joint was tested as described below.
The strength of the cured joint was tested using an Instron (Model 5544) with a pulling rate of 5 mm/min. The maximum load for the joint to fail was recorded.
Typically, about 10 joint samples were tested for each adhesive.

The nature of data set [2]: Glass transition temperature of polymer film. As to conditions: adhesive polymer formed from the monomer. Type of data set: physicochemical. The procedure: A 1″×1″ Prolene mesh (Ethicon, Inc.) was briefly rinsed with 0.5% wt NaHCO3 aqueous solution and patted dry. The mesh was placed on a freshly prepared Agar plate in a petri dish and about 100 mg of monomer adhesive was applied and spread evenly across the mesh. The monomer adhesive was allowed to cure completely overnight with the petri dish covered and sealed with parafilm. The fully cured polymer film formed over the mesh was removed and rinsed with deionized water to remove any Agar attached and patted dry with paper towel. The thickness of the polymer film was about 0.6 mm.

Data set [3] can be described thus: Bonding of two moist fingertips by monomer. As to conditions: very small amount of monomer placed between two moist fingertips.

As to `C=C(C#N)C(=O)OCCCCCC(=O)OCC` [Et-ε-CPL-CA, 6-(2-Cyano-acryloyloxy)-hexanoic acid ethyl ester], the “Load (maximum load for the lap shear joint to fail)” value (shortened to “Load”) in data set [1] was 3.68 ± 0.64 Ib.

With `C=C(C#N)C(=O)OC(C)C(=O)OCCCC` (centres unmarked) [Bu-Lac-CA, 2-Cyano-acrylic acid 1-butoxycarbonyl-ethyl ester, reference compound], in data set [1], the “Load” value is reported as 4.96 ± 0.67 Ib. Moreover, in data set [2], the “Glass Transition Temperature (Tg, ° C.)” value was found to be 52 °C. In addition, the Bonding of fingertips entry in data set [3] is given as “bonded the fingertips strongly within one minute”.

For the molecule `C=C(C#N)C(=O)OC(CCC)CC(=O)OCC` (stereo not drawn) [Et-β-CPL-CA, 3-(2-Cyano-acryloyloxy)-hexanoic acid ethyl ester], the “Load” value in data set [1] came out at 4.49 ± 0.68 Ib. In addition, the “Glass Transition Temperature (Tg, ° C.)” value in data set [2] was −11 °C. Further, in data set [3], the Bonding of fingertips result is given as “bonded the fingertips strongly within one minute”.

Consider `C=C(C#N)C(=O)OC(CCCC)C(=O)OCC` (stereo not drawn) [Et-α-CPL-CA, 2-(2-Cyano-acryloyloxy)-hexanoic acid ethyl ester], for which the “Load” value in data set [1] was found to be 1.26 ± 0.29 Ib.

With `C=C(C#N)C(=O)OC(C)CC(=O)OCC` (stereo not drawn) [Et-β-HBT-CA, 3-(2-Cyano-acryloyloxy)-butyric acid ethyl ester], the “Load” value in data set [1] turned out to be 4.09 ± 0.48 Ib. Further, in data set [2], the “Glass Transition Temperature (Tg, ° C.)” value came to 32 °C. The Bonding of fingertips entry in data set [3] is recorded as “bonded the fingertips strongly within one minute”.
